Measured values as given in ChEMBL document CHEMBL3621202, “Suppression of Hepatocellular Carcinoma by Inhibition of Overexpressed Ornithine Aminotransferase” (ACS Med Chem Lett, 2015).
Activity calls are given as the source filed them. The calls are words filed in the database; no cut-off is given here.

Legend:
[1] = molecular target: T1, Ornithine aminotransferase, mitochondrial (Homo sapiens, UniProt P04181); assay: Inhibition of human recombinant OAT using 1 mM alpha-ketoglutarate as substrate
T1 sequence (P04181 whole entry): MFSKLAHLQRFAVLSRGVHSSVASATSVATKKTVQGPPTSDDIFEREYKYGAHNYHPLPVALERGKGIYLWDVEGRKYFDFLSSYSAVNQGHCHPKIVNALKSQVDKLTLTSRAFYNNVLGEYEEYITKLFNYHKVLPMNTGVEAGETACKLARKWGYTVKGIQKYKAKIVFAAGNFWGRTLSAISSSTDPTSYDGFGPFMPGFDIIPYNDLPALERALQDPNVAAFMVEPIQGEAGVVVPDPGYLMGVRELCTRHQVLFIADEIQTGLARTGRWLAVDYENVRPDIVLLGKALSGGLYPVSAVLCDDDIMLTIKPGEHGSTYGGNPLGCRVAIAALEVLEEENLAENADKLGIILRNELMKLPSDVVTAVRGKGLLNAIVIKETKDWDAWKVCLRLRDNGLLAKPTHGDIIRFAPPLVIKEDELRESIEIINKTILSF

[2] = molecular target: Aspartate aminotransferase, cytoplasmic (Homo sapiens) (UniProt P17174); assay: Inhibition of aspartate aminotransferase (unknown origin) at 4 mM using 5.55 mM L-aspartate as substrate
Chain of Aspartate aminotransferase, cytoplasmic (Homo sapiens) (P17174 whole entry): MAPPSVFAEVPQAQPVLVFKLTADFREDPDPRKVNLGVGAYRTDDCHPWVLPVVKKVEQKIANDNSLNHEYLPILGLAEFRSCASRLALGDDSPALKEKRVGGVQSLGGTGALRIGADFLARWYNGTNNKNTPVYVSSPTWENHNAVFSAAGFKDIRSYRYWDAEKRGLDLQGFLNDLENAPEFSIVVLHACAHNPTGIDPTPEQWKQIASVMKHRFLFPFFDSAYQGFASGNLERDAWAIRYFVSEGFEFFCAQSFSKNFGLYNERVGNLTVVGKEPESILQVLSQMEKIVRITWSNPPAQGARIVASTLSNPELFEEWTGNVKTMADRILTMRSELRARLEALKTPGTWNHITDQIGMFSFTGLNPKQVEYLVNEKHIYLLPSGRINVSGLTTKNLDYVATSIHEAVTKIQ

[3] = species on record: Homo sapiens; assay: Inhibition of alanine aminotransferase (unknown origin) at 4 mM using 5.55 mM L-alanine as substrate
[4] = tested on: Hep 3B2; assay: Decrease in AFP secretion in human Hep3B cells at 50 ug/ml by ELISA; type: functional, cell-based
[5] = tested on: Mus musculus; assay: Reduction in AFP secretion in Hep3B cells xenografted Balb/C mouse serum at 0.1 mg/kg, po administered 3 weeks after xenograft measured 14 days after treatment by ELISA (reference value: 29155 pg/ml); type: functional, Hep 3B2
[6] = tested on: Mus musculus; assay: Reduction in AFP secretion in Hep3B cells xenografted Balb/C mouse serum at 1 mg/kg, po administered 3 weeks after xenograft measured 14 days after treatment by ELISA (reference value: 29155 pg/ml); type: functional, Hep 3B2
[7] = tested on: Mus musculus; assay: Reduction in AFP secretion in Hep3B cells xenografted Balb/C mouse serum at 0.1 mg/kg, po administered 3 weeks after xenograft measured 21 days after treatment by ELISA; type: functional, organism-based; details: Hep 3B2
[8] = tested on: Mus musculus; assay: Reduction in AFP secretion in Hep3B cells xenografted Balb/C mouse serum at 1 mg/kg, po administered 3 weeks after xenograft measured 21 days after treatment by ELISA; type: functional, organism-based; details: Hep 3B2
[9] = Antitumor activity against human Hep3B cells xenografted in Balb/C mouse assessed as tumor size at 0.1 mg/kg, po administered 3 weeks after xenograft measured 28 days after treatment (reference value: 24.2); type: functional, Hep 3B2
[10] = Antitumor activity against human Hep3B cells xenografted in Balb/C mouse assessed as tumor size at 1 mg/kg, po administered 3 weeks after xenograft measured 28 days after treatment (reference value: 24.2); type: functional, Hep 3B2
[11] = tested on: HepG2; assay: Decrease in AFP secretion in human HepG2 cells at 50 ug/ml by ELISA; type: functional, cell-based
[12] = Antiproliferative activity against human Hep3B cells after 48 hrs by [3H]-thymidine incorporation assay; type: functional, Hep 3B2
[13] = Antiproliferative activity against […] cells after 48 hrs by [3H]-thymidine incorporation assay; type: functional
[14] = tested on: Hep 3B2; assay: Effect AFP secretion in human Hep3B cells by ELISA; type: functional, cell-based
[15] = tested on: Hepa1-6; assay: Effect AFP secretion in […] cells by ELISA; type: functional, cell-based
[16] = tested on: HepG2; assay: Effect AFP secretion in human HepG2 cells by ELISA; type: functional, cell-based
[17] = tested on: Mus musculus; assay: Reduction in AFP secretion in Hep3B cells xenografted Balb/C mouse serum at 500 ug/kg, ip administered as single dose by ELISA; type: functional, organism-based; details: Hep 3B2

`NC1C=CC=C(C(=O)O)C1` (stereo not drawn) [GABACULINE] showed a Ki [1] of 2.1 µM.
For `N[C@H]1C[C@@H](C(=O)O)CC1=C(C(F)(F)F)C(F)(F)F`, the inhibition [2] was “inactive”, the inhibition [3] was “inactive” and the inhibition [4] was “Active”. The Activity [5] was 24857 pg/mL, the Activity [6] was 24857 pg/mL and the inhibition [7] was “Active”. The inhibition [8] was “Active”, the “fold change (FC)” value [9] was 4.5 and the “fold change (FC)” value [10] was 3.1. For the same compound, the inhibition [11] was “Active” and the Ki [1] was 4.2 µM.
In the case of `N[C@H]1C=C(C(=O)O)CCC1` [GABACULINE], the “inhibition (INH)” value [12] is reported as 43%, the “inhibition (INH)” value [13] is reported as 43% and the Activity [14] is reported as “inactive”. For the same compound, the Activity [15] was “inactive”, the Activity [16] was “inactive” and the inhibition [17] was “Active”.
